Test results reported in US20230210929A1, “MATERIALS AND METHODS FOR BLOCKING MALARIA INFECTION AND TRANSMISSION” (THE FLORIDA INTERNATIONAL UNIVERSITY BOARD OF TRUSTEES, priority 2021, published 2023).
Where “and” joins values, the source holds several entries; their conditions need not be identical. Equal values may be shown once. Entries after “also recorded” stand apart in the source; their conditions may differ.

Key:
[1] = test system: human embryonic kidney 293 (HEK293) cells; assay: General cytotoxicity MTT assay; format: cell-based; conditions: 24 h
Description: A drug could kill a cell or inhibit the cell proliferation through general cytotoxicity. Vybrant® MTT (3-(4,5-dimethylthiazol-2-yl)-2,5-diphenyl tetrazolium bromide) Cell Proliferation Assay (Thermo Fisher) was used to analyze living cells. The human embryonic kidney 293 (HEK293) cell line was used as the experimental cells. About 20,000 HEK293 cells in 100 μL of culture medium (RPMI 1640+2 mM glutamine+10% fetal bovine serum) were seeded per well in 96-well microplates. After incubation at 37° C. with 5% CO2 for 24 h, 1 μL of pulixin in DMSO at various dilutions was added into each well to obtain a final concentration of 0, 1, 3, 10, 30, and 100 μg/mL. Three replicates were conducted for each concentration. Following the incubation at 37° C. with 5% CO2 for 24 h, 10 μL, of MTT (5 mg/mL in PBS) was added into each well and incubated for 4 h at 37° C. with 5% CO2. All but 25 μL of the medium was removed from the wells, 100 μL of DMSO was added to each well and incubated at 37° C. for 10 min to dissolve formazan crystals for measurement. Optical density was measured at an absorbance wavelength of 540 nm. The data were analyzed using ANOVA in Prism 8 (GraphPad, San Diego, Calif.). The experiment was independently performed twice.

[2] = test system: P. falciparum gametocytes; assay: Conversion ratio from gametocytes to ookinetes; format: cell-based; conditions: pulixin 40 μM
Description: P. falciparum (NF54) was cultured in the complete RPMI-1640 medium containing 4% new 0+ human red blood cells, 10% human AB+ serum, and 12.5 μg/mL of hypoxanthine in a candle jar at 37° C. To prepare P. falciparum ookinetes, 5 mL of day-15 cultured P. falciparum containing ˜2% stage V gametocytes were transferred into a 15 mL centrifuge tube and centrifuged at 650×g for 5 min at RT. The pellet was then resuspended in 500 μL of sterile ookinete culture medium (RPMI-1640 medium containing 20% human serum AB+, 50 μg/mL of hypoxanthine, 2 g/L NaHCO3). The resuspended cells were transferred into a well of a 12-well plate and incubated at room temperature on a shaker (20 rpm) for 24 h to generate ookinetes. Finally, cell mixtures of the ookinetes, gametocytes, and asexual-stage P. falciparum were collected by centrifugation at 650×g for 5 min at RT.
The 15-17-day-old cultured P. falciparum was collected by centrifugation at 500×g for 3 min. The pellets were suspended in ookinete culture medium (incomplete RPMI-1640 containing 20% human serum AB+, 50 μg/mL of hypoxanthine, and 2 g/L of NaHCO3) to obtain 10^5 gametocytes per μL. […] After incubation on a shaker (20 rpm) at RT for 18-24 h, the ookinetes and gametocytes were counted using a Giemsa-stained blood smear under a bright-field microscope. The ratios of gametocytes to ookinetes were calculated.

[3] = test system: asexual-stage P. falciparum; assay: Inhibition assay of asexual Plasmodium falciparum proliferation; format: cell-based
Description: The 3-5-day cultured iRBC were mixed with fresh human RBCs (AB+ type) in complete RPMI-1640 to prepare cultures with 0.5% parasitemia and 2% hematocrit. Pulixin was dissolved in DMSO at the concentration of 1 mg/mL and diluted with DMSO to various levels. A 2 μL pulixin solution mixed with 1 mL of cell culture was added to a 24-well plate. The plate was incubated in a candle jar at 37° C. Approximately 48 h later, the medium was replaced with fresh medium containing same concentration of pulixin. Parasitemia was recorded at 24, 48, 72, and 96 h post-incubation. The test for each concentration was replicated three times. EC50 was determined by analyzing the dose-response curve obtained with GraphPad Prism (GraphPad Software, CA, USA). The assays were repeated.

[4] = test system: P. falciparum transmission to An. gambiae; assay: Standard membrane feeding assay (SMFA), transmission-blocking activity by feeding; format: in vivo
Description: The 15-17-day-old cultured P. falciparum iRBCs containing 2-3% stage V gametocytes were collected and diluted with new O+ type human blood, with the same volume of heat-inactivated AB+ human serum added. The final concentration of stage V gametocytes in the blood was around 0.2%. Then, 3 μL of the candidate fungal extract or pulixin with different concentrations in DMSO was mixed with 297 μL of infected blood and was used to feed about 100 3-5-day-old An. gambiae G3 female mosquitoes for 30 min, and the engorged mosquitoes were maintained with 8% sugar in a BSL-2 insectary (28° C., 12 h light/dark cycle, 80% humidity). The midguts were dissected 7 days after infection and stained with 0.1% mercury dibromofluorescein disodium salt in PBS. The oocysts were counted under a light microscope.

[5] = test system: interaction between FREP1 and P. falciparum-infected cell lysate; assay: ELISA of FREP1 binding to P. falciparum-infected cell lysate; conditions: pulixin 5 μg/mL
Description: Small molecules that inhibited the FREP1-Plasmodium interaction to block malaria transmission were screened. In brief, P. falciparum-infected (NF54 obtained from the BEI Resources, Manassas, Va., USA) red blood cells (iRBCs) were cultured for 15-17 days. The iRBCs suspended in PBST (PBS containing 0.2% Tween-20) was homogenized by ultra-sonication with six cycles of 10 s of pulse and 50 s of resting on ice for each period. The lysates were centrifuged at 8,000×g for 2 min to remove insoluble materials and cellular debris. Then, 96-well ELISA plates were coated with 50 μL of the iRBC lysate (2 mg/mL protein) overnight at 4° C. After coating, the wells were blocked with 100 μL of 2% bovine serum albumin (BSA) in PBS per well for 1.5 h at room temperature (RT). After removal of the blocking solution, 49 μL of FREP1 (10 μg/mL) in blocking buffer (PBS containing 2% BSA) and 1 μL of fungal extract (2 mg/mL in DMSO) were added to each well, followed by incubation for 1 h at RT. […] Finally, each well was developed with 50 μL of pNPP substrate (Sigma-Aldrich) until the colors were visible, and absorbance at 405 nm was measured. […]
The 15-17-day cultured P. falciparum infected cell lysate was prepared as described above. […] Rabbit anti-FREP1 polyclonal antibodies quantified the retained FREP1 as described above. After reaction with the pNPP, A405 was measured. […]

Cc1cc(N)cc2oc(=O)c3c(O)cc(O)cc3c12 [pulixin, 3-amino-7,9-dihydroxy-1-methyl-6H-benzo[c]chromen-6-one]
density of living HEK293 cells versus control ([1]; pulixin 0 to 30 μg/mL (116 μM)): No significant difference
density of living HEK293 cells versus other concentrations ([1]; pulixin 100 μg/mL): significant reduction; also recorded: significantly lower
conversion of gametocytes to ookinetes versus control [2]: no significant difference; also recorded: did not inhibit
EC50 ([3]; Plasmodium falciparum, 96 h, parasitemia on day 4, read-out: EC50 inhibiting development of asexual-stage P. falciparum): 0.012 µg/mL and 47 nM
P. falciparum-infected cells on day 4 versus control (0 μg/mL) ([3]; pulixin greater than 0.01 μg/mL): Significantly fewer
EC50 ([4]; Anopheles gambiae, 168 h, read-out: EC50, concentration that inhibits 50% of infection intensity (number of oocysts per mosquito)): 11 µM
inhibition of malaria transmission ([4]; pulixin 40 μM in infected blood): completely inhibited; also recorded: completely blocked
inhibition of the interaction between the FREP1 protein and P. falciparum-infected cell lysate [5]: about 50%
